Results on twelve molecules are retold here after PMC11873125 (Scientific Reports, 2025).

Entries after “also recorded” stand apart in the source; their conditions may differ.

Data set [1] can be described thus: Solubility observation during SAR testing. The data set is classed as physicochemical.
Data set [2] deals with LMNB1 in TRE-FLAG-LMNB1 MEF. Description: Primary HCS assay, LMNB1 intensity, dose-response. The data set is classed as cell-based, mouse. Particulars: DOX medium, 48 h, ten-point dose-response.
Data set [3] has as its system LMNA/C in TRE-FLAG-LMNB1 MEF. Description: Primary HCS assay, LMNA/C intensity. The data set is classed as cell-based, mouse. Conditions: 48 h.
Another data set deals with TRE-FLAG-LMNB1 MEF. Put plainly: Primary HCS assay, cell numbers. The data set is classed as cell-based, mouse. Particulars: 48 h.
The test system of data set [4] is LMNB1 in TRE-FLAG-LMNB1 MEF. Description: Western blot of LMNB1 in TRE-FLAG-LMNB1 MEF. The data set is classed as cell-based, mouse. Particulars: 48 h, LMNB1/actin. On the technique in general: Immunoblotting shows a protein as a band on a membrane.
The subject of a further data set is LMNB1. Conditions: cited from earlier work.
For the next data set, the system named is ADLD patient fibroblasts. Description: Antiproliferative activity and expanded toxicity measurements. The data set is classed as cell-based, human. Conditions: high density, two-day exposure.
In a further data set the test system is LMNB in HL-60 cells. Conditions: cited from earlier work.

Consider `COc1cccc(C2CC(c3ccccc3Cl)Nc3ncnn32)c1` (stereo not shown) [CID 663139], for which the “Solubility (in words)” value in data set [1] is “caused solubility problems”. Regarding `COc1ccc(C2CC(c3ccccc3Cl)Nc3nc(N)nn32)cc1OC` (stereo not shown) [CID 3154585], in data set [2], the “Effect on LMNB1 levels in dose-response (in words)” value (shortened to “Effect on LMNB1 levels”) is recorded as “limited response at the highest concentration tested”. The same measure, in the same setting: as for `COc1ccc(C2CC(c3ccc(Cl)cc3Cl)Nc3nc(N)nn32)cc1OC` (stereo not shown) [CID 3154587], the entry is “inactive”; as for `CCOc1ccccc1C1CC(c2ccccc2)Nc2nc(N)nn21` (stereo not shown) [CID 3512343], “retained some activity”. The same measure, in the same setting: as for `O=C(NCc1ccco1)c1cc2nc(-c3ccc4c(c3)OCO4)cc(C(F)(F)F)n2n1` [MolPort-001–493–770], the entry is “very strong reduction of LMNB1, which was an artifact of image analysis”.

As to `Oc1ccc(-c2nc(-c3ccncc3)c(-c3ccc(F)cc3)[nH]2)cc1` [SB202190], the “Effect on LMNB1 levels” value in data set [2] was “dose-dependent decreases in LMNB1 levels”. Further, the “Effect on LMNA/C expression, selectivity (in words)” value in data set [3] is reported as “selectively reduced LMNB1 over LMNA/C”. Besides, the “Cellular toxicity (in words)” value in the data set with TRE-FLAG-LMNB1 MEF is “no or low toxicity”. The “Confirmation of LMNB1 reduction by Western blot (in words)” value in data set [4] was “concentration-dependently reduced both human-FLAG-LMNB1 and endogenous mouse LMNB1”. As to `Oc1c2ccccc2c2c3c(cccc13)N=N2` [SP600125], in data set [2], the “Effect on LMNB1 levels” value was “dose-dependent decreases in LMNB1 levels; also recorded: maximum response with SP600125 was small and the curve not sigmoidal”. The “Effect on LMNA/C expression, selectivity (in words)” value in data set [3] is given as “selectively reduced LMNB1 over LMNA/C”. In addition, the “Cellular toxicity (in words)” value in the data set on TRE-FLAG-LMNB1 MEF was “no or low toxicity”. The “Confirmation of LMNB1 reduction by Western blot (in words)” value in data set [4] is recorded as “did not confirm”. On to `CCOc1ccc(N([C@@H](C)C(=O)Nc2ccc(Br)c(C)c2)S(C)(=O)=O)cc1` [UPCMLDCBRC1002139], for which the “Effect on LMNB1 levels” value in data set [2] was “not tolerated”.

On to `Cc1c(CNC(=O)c2nn3c(c2Cl)N[C@@H](c2ccccc2)C[C@@H]3C(F)(F)F)cnn1C` [UPCMLDCBRC1040264], for which the “Effect on LMNB1 levels” value in data set [2] is on record as “abolished activity”. Still for that read-out and setting: as for `COc1ccccc1NC(=S)N[C@@H](NC(=O)c1cccc(Br)c1)C(Cl)(Cl)Cl` [UPCMLDCBRC1049772], the entry is “abolished activity”.

On to `CO[C@H]1/C=C\C=C(/C)C(=O)NC2=CC(=O)C(NCCN(C)C)=C(C[C@@H](C)C[C@H](OC)[C@H](O)[C@@H](C)/C=C(\C)[C@@H]1OC(N)=O)C2=O` [alvespimycin], for which the “Cellular toxicity (in words)” value in the data set with TRE-FLAG-LMNB1 MEF is “significant cellular toxicity”. Moreover, in the data set on LMNB1, the “Effect on LMNB1 (in words)” value is given as “reduced LMNB1”. As for `CC[C@@]1(O)C(=O)OCc2c1cc1n(c2=O)Cc2cc3ccccc3nc2-1` [camptothecin, (S)-( +)-camptothecin], the “Effect on LMNB1 levels” value in data set [2] was “dose-dependent decreases in LMNB1 levels”. Also, the “Cellular toxicity (in words)” value in the data set on TRE-FLAG-LMNB1 MEF was “cellular toxicity”. Besides, the “Effect on cell numbers, nuclear morphology and cell size (in words)” value in the data set with ADLD patient fibroblasts was “reduced cell numbers and caused cells to enlarge”. Moreover, the “Effect on LMNB levels (in words)” value in the data set with LMNB in HL-60 cells is on record as “reduce LMNB levels in HL-60 cells”.
